Some test systems named below: SNB-19 CNS; UACC-62 melanoma; HCC-2998 colon; HOP-92 NSCLC; ACHN renal; SF-539 CNS; 786-0 renal; T-47D breast; A498 renal.
Common to all, as to test: NCI anticancer screen, dose series, 48 h

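Test compounds were applied to cells in 96-well plates for 48 hours at 5 doses. Definition used: TGI = concentration required for complete inhibition of growth.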

Consider `COC(=O)[C@@H]1C[C@@]2(C3C=CN(C(=O)C(F)(F)F)C=C3)c3ccccc3N(C(=O)C(F)(F)F)[C@H]2N1C(=O)OC`, for which the TGI in the assay on SNB-19 CNS, in the assay with UACC-62 melanoma, in the assay with HCC-2998 colon, in the assay on HOP-92 NSCLC, with ACHN renal and in the assay on SF-539 CNS was greater than 100 µM throughout. The TGI in the assay on 786-0 renal, in the assay with T-47D breast and in the assay with A498 renal was greater than 100 µM each time.

Regarding `CC1(C)Oc2ccc(NC(=O)CCC(N)C(=O)O)cc2O1` (stereo unspecified), the TGI with SNB-19 CNS, in the assay on UACC-62 melanoma, with HCC-2998 colon, in the assay with HOP-92 NSCLC, in the assay with ACHN renal and in the assay with SF-539 CNS was greater than 100 µM throughout. The TGI in the assay with 786-0 renal, in the assay on T-47D breast and in the assay with A498 renal was greater than 100 µM throughout.

Regarding `COc1cc2c(/C=C3/C(=O)N(c4ccccc4)c4ccccc43)c(Cl)[nH]c2cc1C`, the TGI was greater than 54.6 µM in the assay on SNB-19 CNS; 27.9 µM with UACC-62 melanoma; 8.37 µM with HCC-2998 colon; greater than 78.4 µM in the assay with HOP-92 NSCLC; greater than 49.2 µM in the assay on ACHN renal; 5.86 µM in the assay on SF-539 CNS. Also, the TGI was greater than 44.6 µM in the assay on 786-0 renal, 7.5 µM in the assay on T-47D breast and greater than 71.4 µM in the assay on A498 renal.

Turning to `Cn1nc(S(N)(=O)=O)s/c1=N/C(N)=S`, the TGI with SNB-19 CNS, in the assay with UACC-62 melanoma, in the assay with HCC-2998 colon, with HOP-92 NSCLC, in the assay on ACHN renal and in the assay on SF-539 CNS was greater than 100 µM in each case. Further, the TGI in the assay with 786-0 renal, in the assay with T-47D breast and in the assay on A498 renal was greater than 100 µM in each case.

`COc1ccc(OC)c2c1C1CCC(=O)N1CN2C(C)=O` (stereo unspecified): the TGI with SNB-19 CNS, in the assay on UACC-62 melanoma, in the assay with HCC-2998 colon, with HOP-92 NSCLC, in the assay on ACHN renal and in the assay with SF-539 CNS was greater than 100 µM in each case. The TGI in the assay with 786-0 renal, with T-47D breast and in the assay with A498 renal was greater than 100 µM throughout.

As to `CC(C)N(C)C(=O)C12C3C4C1C1C2C3C41C#N` (stereo unspecified), the TGI in the assay with SNB-19 CNS, with UACC-62 melanoma, in the assay with HCC-2998 colon, with HOP-92 NSCLC, in the assay on ACHN renal and in the assay on SF-539 CNS was greater than 100 µM throughout. Also, the TGI with 786-0 renal, with T-47D breast and with A498 renal was greater than 100 µM in each case.

In the case of `CCc1c(C)c(C#N)c(=S)n(C2OC(CO)C(O)C(O)C2O)c1C` (stereo unspecified), the TGI in the assay with SNB-19 CNS, in the assay with UACC-62 melanoma, in the assay on HCC-2998 colon, with HOP-92 NSCLC, in the assay with ACHN renal and in the assay with SF-539 CNS was greater than 100 µM each time. The TGI in the assay with 786-0 renal, in the assay with T-47D breast and in the assay with A498 renal was greater than 100 µM in each case.

As to `[N-]=[N+]=Nc1ccc(CNc2cc(=O)[nH]c(=O)[nH]2)cc1`, the TGI in the assay with SNB-19 CNS, with UACC-62 melanoma, with HCC-2998 colon, in the assay with HOP-92 NSCLC, in the assay on ACHN renal and in the assay on SF-539 CNS was greater than 100 µM in each case. For the same molecule, the TGI in the assay on 786-0 renal, in the assay on T-47D breast and in the assay on A498 renal was greater than 100 µM each time.

As to `Cn1cnc2c(sc3nc4ccccc4n32)c1=N`, the TGI in the assay on SNB-19 CNS, with UACC-62 melanoma, with HCC-2998 colon, with HOP-92 NSCLC, in the assay with ACHN renal and in the assay with SF-539 CNS was greater than 100 µM each time. For the same molecule, the TGI in the assay with 786-0 renal, in the assay on T-47D breast and in the assay with A498 renal was greater than 100 µM each time.

Regarding `Cc1c2c(OCCCCN3CCN(c4ncccn4)CC3)nn(C)c(=O)c2c(C)n1-c1ccccc1`, the TGI with SNB-19 CNS was 33.3 µM; with UACC-62 melanoma, 31 µM; in the assay with HCC-2998 colon it was 35 µM; in the assay with HOP-92 NSCLC, 31.8 µM; in the assay with ACHN renal, 31.3 µM; in the assay on SF-539 CNS it was 32.6 µM. Besides, the figures for the TGI in the assay on 786-0 renal, in the assay on T-47D breast and with A498 renal were 34.7 µM, 45.8 µM and 30.6 µM, respectively.

Consider `CC1(COS(=O)(=O)OCC2(C)COS(=O)(=O)OC2)COS(=O)(=O)OC1`, for which the TGI is greater than 100 µM in the assay with SNB-19 CNS; greater than 100 µM in the assay with UACC-62 melanoma; greater than 100 µM in the assay on HCC-2998 colon; greater than 63.8 µM in the assay on HOP-92 NSCLC; greater than 74 µM with ACHN renal; greater than 100 µM with SF-539 CNS. For the same molecule, the TGI in the assay on 786-0 renal was greater than 100 µM; in the assay with T-47D breast, greater than 100 µM; in the assay with A498 renal it was 97.2 µM.

As to `CC(C)OP(=O)(OC(C)C)C(C(C)C)N(C)/C(F)=N/C(F)(F)F` (stereo unspecified), the TGI in the assay on SNB-19 CNS, in the assay with UACC-62 melanoma, with HCC-2998 colon, with HOP-92 NSCLC, with ACHN renal and with SF-539 CNS was greater than 100 µM each time. In addition, the TGI in the assay on 786-0 renal, in the assay on T-47D breast and with A498 renal was greater than 100 µM each time.

In the case of `COc1cccc(-c2cc(=O)c3ccc(C)nc3[nH]2)c1`, the TGI with SNB-19 CNS was greater than 100 µM; in the assay on UACC-62 melanoma it was greater than 100 µM; in the assay on HCC-2998 colon it was 2.12 µM; in the assay on HOP-92 NSCLC it was 3.85 µM; in the assay with ACHN renal, greater than 100 µM; in the assay on SF-539 CNS, 0.921 µM. Besides, the TGI with 786-0 renal was greater than 100 µM; in the assay on T-47D breast, greater than 100 µM; with A498 renal, 2.34 µM.

For `O=c1[nH]c2cc3[nH]c4ncccc4c(=O)c3cc2[nH]1`, the TGI in the assay with SNB-19 CNS, in the assay with UACC-62 melanoma, in the assay with HCC-2998 colon, in the assay on HOP-92 NSCLC, in the assay with ACHN renal and with SF-539 CNS was greater than 10 µM each time. Further, the TGI with 786-0 renal, in the assay on T-47D breast and in the assay with A498 renal was greater than 10 µM throughout.

(Values after PubChem BioAssay (NCI).)
